From patent US20260226427A1, “TEST SYSTEM COMPRISING STABLY CYP-TRANSFECTED OR TRANSDUCED MAMMALIAN CELLS” (BRANDENBURGISCHE TECHNISCHE UNIVERSITÄT COTTBUS-SENFTENBERG, priority 2023, published 2026)
Read-outs that look alike come from different tables or passages of the source.

How the values were obtained:
CYP3A4 [1] = target: T1, CYP3A4 (Homo sapiens, UniProt P08684)
CYP3A4 [2] = target: T1, CYP3A4; remark: listed apart in the source
CYP1A2 = target: T2, CYP1A2 (Homo sapiens, UniProt P05177)
T2 sequence (P05177 2-516 limits assumed): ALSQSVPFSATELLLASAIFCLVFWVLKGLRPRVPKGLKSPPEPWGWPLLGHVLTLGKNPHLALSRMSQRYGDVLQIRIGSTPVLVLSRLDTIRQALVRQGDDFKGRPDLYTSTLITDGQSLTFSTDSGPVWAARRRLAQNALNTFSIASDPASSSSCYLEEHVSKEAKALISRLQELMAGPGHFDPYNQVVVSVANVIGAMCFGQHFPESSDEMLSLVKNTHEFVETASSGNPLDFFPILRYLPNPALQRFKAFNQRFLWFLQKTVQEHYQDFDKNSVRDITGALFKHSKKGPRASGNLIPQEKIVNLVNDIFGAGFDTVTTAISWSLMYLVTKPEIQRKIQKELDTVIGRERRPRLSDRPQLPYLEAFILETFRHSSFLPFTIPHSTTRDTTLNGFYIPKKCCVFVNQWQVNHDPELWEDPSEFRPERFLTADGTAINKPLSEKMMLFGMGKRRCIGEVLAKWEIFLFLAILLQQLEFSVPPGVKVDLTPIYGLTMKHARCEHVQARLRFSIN

T1 sequence (P08684 2-503 limits assumed): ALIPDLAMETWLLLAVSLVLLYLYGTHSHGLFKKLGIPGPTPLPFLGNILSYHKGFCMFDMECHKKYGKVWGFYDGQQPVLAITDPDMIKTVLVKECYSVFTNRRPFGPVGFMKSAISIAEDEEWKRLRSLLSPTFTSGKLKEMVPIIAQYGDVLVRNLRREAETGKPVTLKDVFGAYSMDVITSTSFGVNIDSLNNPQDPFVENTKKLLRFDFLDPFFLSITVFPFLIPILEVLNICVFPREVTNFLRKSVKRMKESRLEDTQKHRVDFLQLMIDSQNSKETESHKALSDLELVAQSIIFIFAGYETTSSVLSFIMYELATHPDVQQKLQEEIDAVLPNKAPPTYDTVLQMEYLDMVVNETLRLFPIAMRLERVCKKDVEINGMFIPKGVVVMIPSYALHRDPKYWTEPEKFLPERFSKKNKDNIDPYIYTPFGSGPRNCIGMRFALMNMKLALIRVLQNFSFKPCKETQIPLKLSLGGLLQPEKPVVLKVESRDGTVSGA

C[C@]12CC[C@H]3[C@@H](CCC4=CC(=O)CC[C@@]43C)[C@@H]1CC[C@@H]2O [testosterone]
yield of main metabolite m(6β-OH-T) (CYP3A4 [1]): 17.3 ± 1.4 µg
yield of main metabolite (6β-hydroxytestosterone) in 200 μL preparation (CYP3A4 [2]): up to 100 ng
yield of main metabolite in 200 μL metabolism preparation (CYP3A4 [2]): 100 to 200 ng

CCOc1ccc(NC(C)=O)cc1 [phenacetin]
phenacetin metabolite production (CYP1A2; 2 h): 17 µg
phenacetin metabolite production (CYP1A2; 48 h): 101 µg
yield of main metabolite m(acetaminophen) (CYP1A2; 48 h): 101 ± 4 µg
